Reference: patent US20130302247A1, “SYNTHESIS OF FLUOROARACHIDONIC ACID AND METHODS OF USE THEREOF” (The United States of America, as represented by the …, priority 2012, published 2013)

Legend:
[1] = Incorporation of [19F]FAA into brain lipids of unanesthetized mice (GC/MS, in vivo kinetic infusion model); set-up: species or system C57BL/6J male mice
Protocol: (§1) The plasma and brain kinetics of the purified [^19F]FAA were tested in unanesthetized adult C57BL/6J male mice. The study was conducted following the National Institutes of Health Guidelines for the Care and Use of Laboratory Animals (Publication no. 80-23) and was approved by the Animal Care and Use Committee of the Eunice Kennedy Shriver National Institute of Child Health and Human Development. Male C57BL/6J mice were obtained at the age of 2-3 months. The mice were maintained in an animal facility in which temperature, humidity, and light cycle were regulated with free access to water and a fixed diet (Rodent NIH-07) that contained (as fractional percent of total fatty acids), 30.6% saturated, 22.5% monounsaturated, […], 4.9% α-linolenic, 0.2% AA, 1.6% eicosapentaenoic, and 2.2% docosahexaenoic acid.
At 4-5 months of age, a mouse was anesthetized with […], and polyethylene catheters were inserted into the femoral artery and vein. The mouse was allowed to recover from surgery in an environment maintained at 25° C., with its hindquarters loosely wrapped and taped to a wooden block. During recovery, body temperature was maintained at 37° C. by means of a rectal probe and a heating element (Indicating Temperature Controller; Yellow Springs Instrument). After 3 h of recovery, the unanesthetized mouse was infused intravenously for 5 min with 130 μl HEPES buffer (pH 7.4) containing 50 mg/ml fatty acid-free bovine serum albumin (BSA, Sigma), or 0.1 mg or 0.5 mg 20-fluoroarachidonic acid (20-FAA) dissolved in HEPES-BSA at a rate of 0.0223 (1+e^−0.32t) ml/min (t in seconds), using a computer-controlled variable rate infusion pump (No. 22; Harvard Apparatus). During infusion, timed arterial blood samples (˜20 μl) were collected in polyethylene-heparin lithium fluoride-coated Beckman centrifuge tubes at 0, 0.25, 0.5, 1.0, 1.5, 3.0, and 4.0 min, and 150 μl was collected at 4.9 min. Plasma samples were separated by centrifuging at 13,000 rpm for 1 min, and stored at −80° C. until they were analyzed. At 5 min, the mouse was anesthetized with sodium pentobarbital (50 mg/kg, i.v.) and subjected to head-focused microwave irradiation (5.5 kW, 0.9 s, 75% power output; Cober Electronics) to stop brain fatty acid metabolism (27). The brain was excised, dissected sagittally and stored at −80° C. until analysis.
Total lipids were extracted from plasma (7-10 μl) and from half brain (˜0.2 g) by the method of Folch et al (28). Heptadecanoic acid (17:0) was added as an internal standard to plasma prior to extraction. Total lipid extracts were separated by thin layer chromatography (TLC) on silica gel plates (Silica Gel 60A TLC plates; Whatman) that were pre-washed with chloroform/methanol (2:1 v/v) and activated by heating at 100° C. Neutral lipid subclasses including phospholipids (PLs), unesterified fatty acids (UFAs), triglycerides (TGs) and cholesteryl esters (CEs) were separated using a mixture of heptane:diethyl ether:glacial acetic acid (60:40:3 by volume) (29), and authentic PL, cholesterol, UFA, TG and CE standards were run in separate lanes to identify the bands. Phospholipid classes (EtnGpl, ethanolamine glycerophospholipid; ChoGpl, choline glycerophospholipid; PtdIns, phosphatidylinositol; PtdSer, phosphatidylserine) were separated in chloroform:methanol:H2O:glacial acetic acid (60:50:4:1 by volume) (30) and identified with authentic standards in separate lanes. The plates were sprayed with 0.03% (w/v) 6-p-toluidine-2-naphthalene sulfonic acid (Acros) in 50 mM Tris-HCl buffer (pH 7.4), and the lipid bands were visualized under UV light. Each band was scraped into tubes containing di-17:0 PC for quantifying PL, CE, TG, EtnGpl, ChoGpl, PtdIns and PtdSer lipid fractions, or 17:0 heptadecaenoic acid to quantify brain UFAs. Toluene (0.2 ml) was added to each tube. The UFAs were extracted from the scraped silica using 2:1 chloroform/methanol and 1.5 ml of 0.1 M KCl, dried and derivitized as described below. […]

[2] = Plasma kinetics of FAA during 5-min intravenous infusion in unanesthetized mice; type: in vivo, C57BL/6J male mice; settings: 5-minute intravenous infusion; for plasma area under the curve: mice
Protocol: as §1
At 4-5 months of age, a mouse was anesthetized with […], and polyethylene catheters were inserted into the femoral artery and vein. The mouse was allowed to recover from surgery in an environment maintained at 25° C., with its hindquarters loosely wrapped and taped to a wooden block. During recovery, body temperature was maintained at 37° C. by means of a rectal probe and a heating element (Indicating Temperature Controller; Yellow Springs Instrument). […] Plasma samples were separated by centrifuging at 13,000 rpm for 1 min, and stored at −80° C. until they were analyzed. […]
Total lipids were extracted from plasma (7-10 μl) and from half brain (˜0.2 g) by the method of Folch et al (28). […] Each band was scraped into tubes containing di-17:0 PC for quantifying PL, CE, TG, EtnGpl, ChoGpl, PtdIns and PtdSer lipid fractions, or 17:0 heptadecaenoic acid to quantify brain UFAs. […]

[3] = mouse, intravenously injected, from ref (2); cited from earlier work
[4] = mouse brain, 5-min i.v. infusion, mean±SD, n=3

Row | Structure (SMILES) | FAA concentration within brain phospholipids (rank order) ([1]; both doses, end of 5-min infusion, FIG. 2-A) | FAA detected in brain unesterified fatty acid, triglyceride and cholesteryl ester fractions ([1]; end of 5-min infusion, mouse brain) | incorporation coefficient k*, high versus low dose ([1]; mouse brain lipids, FIG. 3) | k* values, brain ChoGpl [1, 4] | k* values, brain EtnGpl [1, 4] | k* values, brain PtdIns [1, 4] | k* values, brain PtdSer [1, 4] | k* values, brain Total lipid [1, 4] | distribution of FAA in each phospholipid fraction, percentage of FAA in total phospholipid (rank order) ([1]; mouse brain, FIG. 2-B, p<0.01) | FAA concentration in plasma over time ([2]; 0.3 or 1.6 nmol, FIG. 1) | plasma area under the curve ([2]; high dose (1.6 nmol)) | plasma area under the curve ([2]; low dose (0.3 nmol)) | Published k* values, brain ChoGpl [3] | Published k* values, brain EtnGpl [3] | Published k* values, brain PtdIns [3] | Published k* values, brain PtdSer [3] | Published k* values, brain Total lipid [3]
1 | O=C(O)CCC/C=C\C/C=C\C/C=C\C/C=C\CCCCCF [FAA, 20-Fluoroarachidonic acid] | highest in PtdIns and ChoGpl, followed by EtnGpl and PtdSer | < 0.01 nmol/g | lower for the high infusion dose than the low dose | 6.8 ± 2.6 ml/s/g × 10^4 | 2.8 ± 0.4 ml/s/g × 10^4 | 8.6 ± 1.3 ml/s/g × 10^4 | 0.4 ± 0.1 ml/s/g × 10^4 | 15.0 ± 2.3 ml/s/g × 10^4 | highest in ChoGlp, followed by PtdIns, EtnGlp and PtdSer | increased over time in a dose-dependent manner | 0.236 ± 0.0189 µM·h | 0.0297 ± 0.0217 µM·h |  |  |  |  | 
2 | CCCCC/C=C\C/C=C\C/C=C\C/C=C\CCCC(=O)O [[1-^14C]AA] |  |  |  |  |  |  |  |  |  |  |  |  | 5.9 ± 1.4 ml/s/g × 10^4 | 5.7 ± 1.0 ml/s/g × 10^4 | 6.8 ± 0.8 ml/s/g × 10^4 | 1.8 ± 0.5 ml/s/g × 10^4 | 22.6 ± 1.3 ml/s/g × 10^4
